Measured values published in patent US20140135310A1, “SULPHONAMIDE DERIVATIVES OF ALICYCLIC AMINES FOR THE TREATMENT OF CENTRAL NERVOUS SYSTEM DISEASES” (Adamed Sp. z o.o., priority 2011, published 2014).

Tests used:
[1] = biological target: dopaminergic receptors D3 (Homo sapiens, UniProt P35462); assay: Radioligand binding assay, dopaminergic D3 receptors; conditions: test compound 1×10^−6 M
In short: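 Scintillation read-out. Specific = total − nonspecific (excess cold ligand). Data as % of control specific binding / % inhibition; IC50 by Hill fit; Ki = IC50/(1+L/KD), KD from Scatchard plot.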

[2] = test system: α1 adrenergic receptors (rat cerebral cortex); assay: Radioligand binding assay, adrenergic α1 receptors; conditions: test compound 1×10^−6 M
In short: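 Values derive from radioligand displacement, with non-specific binding defined by excess cold ligand and detection by scintillation. Hill-fit IC50s were converted to Ki via Cheng-Prusoff using Scatchard-derived Kd; percent inhibition of control specific binding also reported.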

5-HT7 receptor = biological target: T1, 5-HT7 receptor (Homo sapiens, UniProt P34969); assay: Radioligand binding assay, serotoninergic 5-HT7 receptors; conditions: binding assay result in %, Table 5a;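 note: test compound at 1 µM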
T1 construct: purchased PerkinElmer
T1 sequence (P34969 whole entry): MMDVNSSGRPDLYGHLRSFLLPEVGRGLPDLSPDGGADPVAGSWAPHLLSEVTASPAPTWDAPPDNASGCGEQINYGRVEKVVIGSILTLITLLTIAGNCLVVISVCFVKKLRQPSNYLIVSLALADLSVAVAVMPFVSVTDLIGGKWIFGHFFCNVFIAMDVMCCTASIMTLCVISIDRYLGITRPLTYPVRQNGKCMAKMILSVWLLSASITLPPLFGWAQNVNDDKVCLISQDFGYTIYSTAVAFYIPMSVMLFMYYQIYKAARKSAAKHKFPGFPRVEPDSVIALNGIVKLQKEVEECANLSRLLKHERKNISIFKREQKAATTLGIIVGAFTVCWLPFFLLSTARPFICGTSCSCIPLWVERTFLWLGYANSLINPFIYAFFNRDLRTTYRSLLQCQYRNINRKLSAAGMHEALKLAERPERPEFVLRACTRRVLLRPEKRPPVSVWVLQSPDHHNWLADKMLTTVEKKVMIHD
In short: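 Ki values used the Cheng–Prusoff equation, with KD from Scatchard analysis, applied to IC50 from Hill fits of human 5-HT7 radioligand competition curves. Bound radioligand was counted by scintillation, and excess unlabelled ligand set the non-specific binding.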

[3] = biological target: dopaminergic receptors D2 (Homo sapiens, UniProt P14416); assay: Radioligand binding assay, dopaminergic D2 receptors; conditions: binding assay, test compound 1×10^−6 M
dopaminergic receptors D2, sequence (P14416 whole entry): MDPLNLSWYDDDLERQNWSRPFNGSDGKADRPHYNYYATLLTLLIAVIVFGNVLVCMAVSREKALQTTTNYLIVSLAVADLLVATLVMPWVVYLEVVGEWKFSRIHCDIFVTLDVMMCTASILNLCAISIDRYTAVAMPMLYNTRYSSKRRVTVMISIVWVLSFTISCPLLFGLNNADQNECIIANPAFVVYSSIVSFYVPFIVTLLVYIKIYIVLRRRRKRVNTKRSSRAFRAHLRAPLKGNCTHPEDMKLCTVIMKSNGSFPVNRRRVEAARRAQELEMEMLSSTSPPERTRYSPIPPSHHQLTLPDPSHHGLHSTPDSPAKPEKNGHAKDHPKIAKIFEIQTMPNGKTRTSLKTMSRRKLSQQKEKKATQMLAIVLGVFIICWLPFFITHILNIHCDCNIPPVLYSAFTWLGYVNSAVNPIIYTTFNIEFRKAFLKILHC
In short: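 Values derive from competition curves: percent inhibition of control specific binding was fitted by Hill non-linear regression for IC50, and Ki calculated with Cheng–Prusoff from radioligand concentration and KD (Scatchard). Bound ligand was detected by scintillation counting.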

5-HT2A receptor = biological target: T2, 5-HT2A receptor (Homo sapiens, UniProt P28223); assay: Radioligand binding assay, serotoninergic 5-HT2A receptors; conditions: binding assay result in %, Table 5a
T2 construct: purchased PerkinElmer
T2 sequence (P28223 whole entry): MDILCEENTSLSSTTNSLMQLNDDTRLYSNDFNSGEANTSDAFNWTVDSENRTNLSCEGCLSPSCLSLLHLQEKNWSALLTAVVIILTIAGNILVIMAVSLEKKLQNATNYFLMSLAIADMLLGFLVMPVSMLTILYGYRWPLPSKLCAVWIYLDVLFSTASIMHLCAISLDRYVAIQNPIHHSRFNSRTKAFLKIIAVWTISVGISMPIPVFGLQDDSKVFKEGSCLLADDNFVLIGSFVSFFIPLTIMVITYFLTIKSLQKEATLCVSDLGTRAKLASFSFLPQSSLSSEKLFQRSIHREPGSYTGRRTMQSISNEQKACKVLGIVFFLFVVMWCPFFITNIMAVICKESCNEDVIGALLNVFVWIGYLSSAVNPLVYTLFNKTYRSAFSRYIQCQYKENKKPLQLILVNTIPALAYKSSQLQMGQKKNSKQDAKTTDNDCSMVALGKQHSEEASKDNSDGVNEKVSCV
In short: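 Competition curves from scintillation-counted specific binding (total minus binding with excess unlabelled ligand) were Hill-fitted to give IC50, converted to Ki via Cheng-Prusoff using Scatchard-derived Kd.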

5-HT6 receptor = biological target: T3, 5-HT6 receptor (Homo sapiens, UniProt P50406); assay: Radioligand binding assay, serotoninergic 5-HT6 receptors; conditions: binding assay result in %, Table 5a;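 note: test compound at 1 µM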
T3 construct: purchased PerkinElmer
T3 sequence (P50406 whole entry): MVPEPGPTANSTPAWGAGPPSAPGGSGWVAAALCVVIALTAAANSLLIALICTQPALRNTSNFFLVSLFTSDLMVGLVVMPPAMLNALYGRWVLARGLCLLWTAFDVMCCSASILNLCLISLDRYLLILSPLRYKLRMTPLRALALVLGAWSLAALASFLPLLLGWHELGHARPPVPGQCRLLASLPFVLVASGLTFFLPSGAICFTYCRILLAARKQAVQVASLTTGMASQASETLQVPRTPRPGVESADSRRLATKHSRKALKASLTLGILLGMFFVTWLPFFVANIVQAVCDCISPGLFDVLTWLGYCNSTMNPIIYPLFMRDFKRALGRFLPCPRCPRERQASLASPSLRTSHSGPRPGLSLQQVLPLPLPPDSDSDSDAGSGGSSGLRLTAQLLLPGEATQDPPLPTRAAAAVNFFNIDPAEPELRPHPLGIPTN
In short: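 Values are Ki from Cheng–Prusoff, taking IC50 from Hill nonlinear regression of competition curves and KD from a Scatchard plot. Specific binding was total minus binding with excess unlabelled ligand. Radioligand displacement was detected by scintillation counting, and data were also reported as percent of control specific binding.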

[4] = biological target: T4, serotonin transporter (SERT) (Homo sapiens, UniProt P31645); assay: Radioligand binding assay, serotonin transporter (SERT); conditions: binding assay, test compound 1×10^−6 M
T4 construct: expressed in transfected cells; host or cells: CHO cells
T4 sequence (P31645 whole entry): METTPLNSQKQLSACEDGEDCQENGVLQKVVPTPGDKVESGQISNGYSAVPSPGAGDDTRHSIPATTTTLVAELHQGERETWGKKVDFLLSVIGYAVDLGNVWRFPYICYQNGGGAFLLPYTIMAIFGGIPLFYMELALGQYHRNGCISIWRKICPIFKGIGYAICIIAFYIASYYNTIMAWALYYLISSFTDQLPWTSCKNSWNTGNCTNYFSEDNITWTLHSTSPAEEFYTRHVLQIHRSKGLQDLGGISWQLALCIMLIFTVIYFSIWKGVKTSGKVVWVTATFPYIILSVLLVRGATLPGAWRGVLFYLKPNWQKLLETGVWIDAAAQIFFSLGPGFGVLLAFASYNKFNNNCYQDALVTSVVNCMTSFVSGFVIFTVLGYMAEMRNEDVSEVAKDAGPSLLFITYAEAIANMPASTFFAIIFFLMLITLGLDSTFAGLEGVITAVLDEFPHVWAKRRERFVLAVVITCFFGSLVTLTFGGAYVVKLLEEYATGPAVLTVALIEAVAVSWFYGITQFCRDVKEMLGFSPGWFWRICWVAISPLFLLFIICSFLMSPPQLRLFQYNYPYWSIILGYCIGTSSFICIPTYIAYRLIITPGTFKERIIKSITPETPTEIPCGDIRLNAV
In short: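 Values are derived from competition curves fitted by the Hill equation to give IC50, then converted to Ki by Cheng-Prusoff with radioligand Kd from Scatchard analysis. Specific binding equals total minus non-specific (excess cold ligand), counted by scintillation, and is also expressed as percent inhibition of control.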

[5] = biological target: T5, 5-HT1A receptor (rat hippocampus) (Rattus norvegicus, UniProt P19327); assay: Radioligand binding assay, serotoninergic 5-HT1A receptors; conditions: binding assay result in %, Table 5a;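 note: test compound at 1 µM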
T5 construct: hippocampus; from tissue; host or cells: rat hippocampus
T5 sequence (P19327 1-422): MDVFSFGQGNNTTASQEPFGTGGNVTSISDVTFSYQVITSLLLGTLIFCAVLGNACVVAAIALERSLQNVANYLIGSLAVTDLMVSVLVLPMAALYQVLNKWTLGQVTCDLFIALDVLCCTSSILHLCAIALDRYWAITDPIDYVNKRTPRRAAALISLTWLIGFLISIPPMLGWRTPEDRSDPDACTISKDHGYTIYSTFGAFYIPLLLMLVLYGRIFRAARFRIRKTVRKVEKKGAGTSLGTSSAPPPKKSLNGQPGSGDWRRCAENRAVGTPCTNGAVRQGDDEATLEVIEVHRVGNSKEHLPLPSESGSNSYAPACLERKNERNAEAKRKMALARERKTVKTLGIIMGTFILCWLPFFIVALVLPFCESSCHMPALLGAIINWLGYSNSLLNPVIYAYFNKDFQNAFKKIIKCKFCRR

dopaminergic receptors D3, sequence (P35462 whole entry): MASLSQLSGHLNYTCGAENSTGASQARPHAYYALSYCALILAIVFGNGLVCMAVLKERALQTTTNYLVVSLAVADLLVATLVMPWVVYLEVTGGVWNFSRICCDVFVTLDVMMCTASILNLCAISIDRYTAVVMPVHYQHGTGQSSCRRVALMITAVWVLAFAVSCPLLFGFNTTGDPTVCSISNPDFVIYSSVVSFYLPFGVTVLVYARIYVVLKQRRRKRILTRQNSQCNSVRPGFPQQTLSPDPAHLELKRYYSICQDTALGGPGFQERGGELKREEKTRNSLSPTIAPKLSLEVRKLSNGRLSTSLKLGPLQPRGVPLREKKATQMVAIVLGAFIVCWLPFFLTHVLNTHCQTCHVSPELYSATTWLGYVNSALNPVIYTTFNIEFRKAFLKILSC

Row | Compound | inhibition at 1 µM [1] | α1 [%] [2] | inhibition at 1 µM (5-HT7 receptor) | inhibition at 1 µM [3] | inhibition at 1 µM (5-HT2A receptor) | inhibition at 1 µM (5-HT6 receptor) | inhibition at 1 µM [4] | inhibition at 1 µM [5] | D3 [%] [1] | 5-HT7 [%] (5-HT7 receptor) | D2 [%] [3] | 5-HT2A [%] (5-HT2A receptor) | 5-HT6 [%] (5-HT6 receptor) | SERT [%] [4] | 5-HT1A [%] [5]
1 | O=S(=O)(NCC1CCN(CCOc2nsc3ccccc23)C1)c1cccc(O)c1 (centres unmarked) [Compound 43, N-[[1-[2-(1,2-Benzothiazol-3-yloxy)ethyl]pyrrolidin-3-yl]methyl]-3-hydroxy-benzenesulphonamide] | 29% | 68% | 71% | 55% | 81% | 87% | -7% | 83% | – | – | – | – | – | – | –
2 | O=S(=O)(NCC1CCN(CCOc2cccc3ccccc23)C1)c1cccc2ccccc12 (centres unmarked) [Compound 273, N-[[1-[2-(1-Naphthyloxy)ethyl]pyrrolidin-3-yl]methyl]naphthalene-1-sulphonamide] | 90% | 25% | 77% | 58% | 95% | 90% | 64% | 85% | – | – | – | – | – | – | –
3 | O=S(=O)(NCC1CN(CCOc2cccc3c2OCCO3)C1)c1ccc2ccccc2c1 [Compound 177, N-[[1-[2-(2,3-Dihydro-1,4-benzodioxin-5-yloxy)ethyl]azetidin-3-yl]methyl]-naphthalene-2-sulphonamide] | 42% | 55% | 88% | 13% | 66% | 44% | 25% | 97% | – | – | – | – | – | – | –
4 | N-[1-[3-(6-Fluoro-1,2-benzoxazol-3-yl)propyl]pyrrolidin-3-yl]benzene-sulphonamide [Compound 6] | – | 98% | – | – | – | – | – | – | 8% | 83% | 70% | 77% | 44% | 18% | 14%
5 | O=S(=O)(NCC1CCN(CCOc2cccc3ccccc23)C1)c1cc2ccc(Cl)cc2s1 (centres unmarked) [Compound 269, 6-Chloro-N-[[1-[2-(1-naphthyloxy)ethyl]pyrrolidin-3-yl]methyl]-benzothiophene-2-sulphonamide] | 89% | −1% | 98% | 38% | 91% | 82% | 53% | 60% | – | – | – | – | – | – | –
6 | O=S(=O)(NCC1CCN(CCOc2cccc3ccccc23)C1)c1ccc2cc(Cl)ccc2c1 (centres unmarked) [Compound 270, 6-Chloro-N-[[1-[2-(1-naphthyloxy)ethyl]pyrrolidin-3-yl]methyl]naphthalene-2-sulphonamide] | 91% | −5% | 94% | 32% | 86% | 86% | 15% | 47% | – | – | – | – | – | – | –
7 | O=S(=O)(NC1CN(CCOc2cccc3c2OCCO3)C1)c1ccc2ccccc2c1 [Compound 95, N-[1-[2-(2,3-Dihydro-1,4-benzodioxan-8-yloxy)ethyl]azetidin-3-yl]naphthalene-2-sulphonamide] | – | −21% | – | – | – | – | – | – | 1% | 94% | 5% | 0% | 9% | −4% | 94%
8 | O=S(=O)(NCC1CCN(CCOc2cccc3ccccc23)C1)c1cccc(O)c1 (centres unmarked) [Compound 123, 3-Hydroxy-N-[[1-[2-(1-naphthyloxy)ethyl]pyrrolidin-3-yl]methyl]-benzenesulphonamide] | 86% | 43% | 88% | 38% | 64% | 72% | 83% | 99% | – | – | – | – | – | – | –
9 | O=S(=O)(NC1CCN(CCCc2c[nH]c3ccc(Cl)cc23)C1)c1ccc(Cl)cc1 (centres unmarked) [Compound 85, 4-Chloro-N-[1-[3-(5-chloro-1H-indol-3-yl)propyl]pyrrolidin-3-yl]-benzene-sulphonamide] | 75% | 9% | 89% | 45% | 64% | 82% | 70% | 102% | – | – | – | – | – | – | –
10 | O=S(=O)(NCC1CN(CCOc2cccc3c2OCCO3)C1)c1ccc(-c2ccccc2)cc1 [Compound 178, N-[[1-[2-(2,3-Dihydro-1,4-benzodioxin-5-yloxy)ethyl]azetidin-3-yl]methyl]-4-phenyl-benzenesulphonamide] | 25% | 20% | 89% | 8% | 73% | 21% | -6% | 96% | – | – | – | – | – | – | –
11 | Cn1ccc2c(S(=O)(=O)NCC3CN(CCOc4cccc5c4OCCO5)C3)cccc21 [Compound 188, N-[[1-[2-(2,3-Dihydro-1,4-benzodioxin-5-yloxy)ethyl]azetidin-3-yl]methyl]-1-methyl-indole-4-sulphonamide] | 51% | 91% | 91% | 52% | 89% | 14% | 44% | 101% | – | – | – | – | – | – | –
12 | O=S(=O)(NCC1CN(CCOc2cccc3ccccc23)C1)c1ccc(F)c(F)c1 [Compound 173, 3,4-Difluoro-N-[[1-[2-(1-naphthyloxy)ethyl]azetidin-3-yl]methyl]-benzenesulphonamide] | 99% | 56% | 105% | 59% | 73% | 91% | 50% | 83% | – | – | – | – | – | – | –
13 | Cc1cccc(S(=O)(=O)NCC2CCN(CCCc3noc4cc(F)ccc34)CC2)c1 [Compound 36, N-[[1-[3-(6-Fluoro-1,2-benzoxazol-3-yl)propyl]-4-piperidine]methyl]-3-methylbenzenesulphonamide] | – | 103% | – | – | – | – | – | – | 38% | 88% | 57% | 59% | 75% | 0% | 18%
14 | O=S(=O)(NCC1CCN(CCOc2cccc3[nH]ccc23)CC1)c1ccc2ccccc2c1 [Compound 67, N-[[1-[2-(1H-Indol-4-yloxy)ethyl]-4-piperidine]methyl]naphthalene-2-sulphonamide] | – | 91% | – | – | – | – | – | – | 94% | 79% | 57% | 80% | 87% | 38% | 76%
15 | O=S(=O)(NC1CCN(CCOc2cccc3ccccc23)CC1)c1ccc2ccccc2c1 [Compound 120, N-[1-[2-(1-Naphthyloxy)ethyl]-4-piperidine]naphthalene-2-sulphonamide] | – | −9% | – | – | – | – | – | – | 30% | 89% | −33% | 68% | 24% | 21% | 8%
16 | O=S(=O)(NC1CCN(CCOc2cccc3c2OCCO3)CC1)c1ccccc1 [Compound 117, N-[1-[2-(2,3-Dihydro-1,4-benzodioxan-8-yloxy)ethyl]-4-piperidine]-benzenesulphonamide] | – | 53% | – | – | – | – | – | – | 29% | 93% | 24% | 86% | 34% | 33% | 76%
